Source: patent publication US11802107B2, “Compounds and methods of use” (Signum Biosciences, Inc., priority 2017, dated 2023)
pIC50: −log10 of the molar value. Converted amounts (≈) assume the structure as drawn.

How the values were obtained:
IL-8 [1] = assay: P. acnes-induced IL-8 protein on human PBMCs (ELISA); type: cell-based; details: PBMCs + live P. acnes 1:1, test material 30 PM, 24 hours
Experimental: (§1) Cryopreserved human Peripheral Blood Mononuclear cells (PBMCs) from healthy adult donors were obtained from Zen Bio, Inc (Cat No. SER-PBMC-F). Cells were cultured in 12-well plates with lymphocyte media (Cat No. LYMPH-1) and incubated with test materials ([…]) and live P. acnes (ATCC® 6919TM) at 1:1 PBMC: P. acnes bacteria ratio for 24 hours at 37° C. and 5% CO2. After incubation, cell media supernatants were harvested and used to measure pro-inflammatory cytokine levels (IL-8, TNF-α, IL-1b, IL-17) using ELISA kits (BD Biosciences® #557966, #555212, #555244; R&D Systems® #DY317). Total RNA was extracted from cells using the RNAqueous® kit (Ambion®; Cat No. 1912) and cDNA was obtained using the High Capacity RNA-to-cDNA kit (Applied Biosystems®; Cat No. 4387406). Quantitative PCR (qPCR) was performed using the TaqMan® Fast Advanced Master Mix (Applied Biosystems®; Cat No. 4444556) and specific TaqMan®-probes human gene primers CXCL8 (IL-8), IL1B (IL-1b), TNF (TNF-α), IL17A (IL-17A) and GAPDH to calculate the relative gene fold expression change per treatment. Gene expression analysis was performed using the comparative Ct method (also known as the 2-[delta][delta]Ct) approach by comparing the Ct values of P. acnes-only treated cells with the untreated samples and normalized to GAPDH gene expression as endogenous housekeeping gene.

IL-17 = assay: P. acnes-induced IL-17 protein on human PBMCs (ELISA); type: cell-based; details: PBMC, PBMCs + live P. acnes 1:1, test material 30 PM, 24 hours
Experimental: as §1

P. acnes (ATCC 6919) [2] = assay: Minimal bactericidal concentration (MBC) against P. acnes; type: cell-based, Propionibacterium acnes; details: Cutibacterium acnes, ATCC6919; P. acnes 10^7 CFU/mL, in PBS, anaerobic conditions
IL-1b = assay: P. acnes-induced IL-1b protein on human PBMCs (ELISA); type: cell-based; details: PBMC, PBMCs + live P. acnes 1:1, test material 30 PM, 24 hours
Experimental: as §1

DEFB4B (hBD2) = assay: NHEK antimicrobial peptide gene expression, hBD2; type: cell-based, human; details: 10 μM, 24 hours, qPCR, normalized to GAPDH
Experimental: (§2) Normal human epidermal keratinocytes (NHEKs) from neonatal donors were obtained from Thermo-Fisher (Cat No. C-001-5C). Cells were cultured in 6-well plates for 24 hours before treatments with EpiLife media (Cat No. MEPI500CA) supplemented with keratinocytes growth supplement (Cat No. 50015). On Day 2, media was removed and incubated with test materials (10 μM) for 24 hours at 37° C. and 5% CO2. On Day 3, total RNA was extracted from cells using the RNAqueous® kit (Ambion®; Cat No. 1912) and cDNA was obtained using the High Capacity RNA-to-cDNA kit (Applied Biosystems®; Cat No. 4387406). Quantitative PCR (qPCR) was performed using the TaqMan® Fast Advanced Master Mix (Applied Biosystems®; Cat No. 4444556) and specific TaqMan®-probes human gene primers DEFB4B (hBD2), DEFB103 (hBD3), HCAP18 and GAPDH to calculate the relative gene fold expression change per treatment. Gene expression analysis was performed using the comparative Ct method (also known as the 2-[delta][delta]Ct) approach by comparing the Ct values of the treated samples with the untreated samples and normalized to GAPDH gene expression as endogenous housekeeping gene. Results were represented as fold-expression/untreated cells.

TNF-α = assay: P. acnes-induced TNF-α protein on human PBMCs (ELISA); type: cell-based; details: PBMCs + live P. acnes 1:1, test material 30 PM, 24 hours
Experimental: as §1

DEFB103 (hBD3) = assay: NHEK antimicrobial peptide gene expression, hBD3; type: cell-based, human; details: 10 μM, 24 hours, qPCR, normalized to GAPDH
Experimental: as §2

HCAP18 = assay: NHEK antimicrobial peptide gene expression, hCAP18; type: cell-based, human; details: 10 μM, 24 hours, qPCR, normalized to GAPDH
Experimental: as §2

[3] = tested on: P. acnes (ATCC 6919) biofilms; assay: P. acnes biofilm eradication (MBEC), crystal violet; type: cell-based, Propionibacterium acnes; details: 24 hours, ≥80% eradication vs vehicle
Experimental: P. acnes (ATCC® 6919™) was cultured as described above. Bacteria biofilms were established by seeding P. acnes cultures in 96-well plates and incubating for 24 hours without agitation. Later, biofilms were incubated with test materials for 24 hours. Remaining biofilms were washed and stained with crystal violet. […] The absorbance was measured at 595 nm in a microplate reader. […] Results from disk diffusion susceptibility testing (Kirby-Bauer Method) after 72 hours incubation were also obtained.

P. acnes (ATCC 6919) [4] = assay: Minimal inhibitory concentration (MIC) against P. acnes; type: cell-based, Propionibacterium acnes; details: Cutibacterium acnes, ATCC6919, 72 h, P. acnes ATCC 6919, 10^6 CFU/mL, read-out: MIC
Experimental: To determine minimal inhibitory concentration (MIC), reagents were dissolved in vehicle (5% v/v) and then added to bacteria suspension. P. acnes (ATCC® 6919TM) at 10^6 CFU/mL was incubated with test materials at the concentrations of two-fold serial dilution (0.25-500 μg/mL) and incubated for 72 hours (P. acnes).

IL-4 = assay: T-cell receptor (anti-CD3/CD28)-induced IL-4 on PBMCs; type: cell-based; details: Homo sapiens, PBMC, anti-CD3/CD28 beads, 24 hours, ELISA, read-out: TCR-PBMCs IL-4 Protein IC50
Experimental: (§3) Cryopreserved human Peripheral Blood Mononuclear cells (PBMCs) from healthy adult donors were obtained from Zen Bio, Inc (Cat No. SER-PBMC-F). Cells were cultured in 96-well plates with lymphocyte media (Cat No. LYMPH-1) and were pre-treated with test materials (≤100 μM) for 2 hours and later co-treated with test materials and anti-CD3/CD28 beads (Thermo-Fisher; Cat No. 11131D) at 1:0.4 PBMC:bead ratio for 24 hours at 37° C. and 5% CO2. After incubation, cell media supernatants were harvested and used to measure cytokine levels (IL-4, IL-5, IL-10) using ELISA kits (BD Biosciences® #555194, #555157; R&D Systems® #DY317). Results were represented as percent of inhibition relative to untreated and anti-CD3/CD28 beads-only treated cells. IC50 values were determined by non-linear regression analysis using the four-parameter logistic equation.

Balb/C mice = assay: Oxazolone-induced delayed-type hypersensitivity (DTH) in vivo model; details: Mus musculus, topical to ears @ 3% w/v, 24 hours, read-out: Edema % inhibition
Experimental: Inbred male Balb/C mice were purchased from Hilltop Lab Animals (Scottdale, PA) and were used between 8 and 10 weeks of age. Mice backs were shaved and 100 μl of 3% v/v Oxazolone (Sigma Aldrich, Cat No. E0753) in acetone/olive oil (4:1) was applied to dorsal skin for sensitization. On Day 7, ears were challenged with 0.5% v/v Oxazolone and 30 minutes after challenge, test materials at 3% w/v were applied to ears (10 μl applied both to the dorsal and ventral surfaces of the mouse ear using a solvent pipette) and 24 hours later, skin thickness (edema) was measured. A 6-mm punch biopsy was obtained from each ear, snap frozen in liquid nitrogen. Ear skin biopsy punches were pulverized using FastPrep®-24 Biopulverizer (MP Biomedical, CatNo. 116004500) and Lysing Matrix A tubes (CatNo. 16910050). Protein extracts were obtained using 500 μL/tissue of cold T-PER buffer (ThermoFisher, CatNo. 78510) with Protease inhibitors (Sigma-Aldich, CatNo. 58820-20TAB). Soluble protein fractions were used to measure cytokine levels (IL-4) using ELISA kit (BD Biosciences® #555232). Results were represented as percent of inhibition relative to unsensitized and sensitized-only treated animals. Vehicle for presently disclosed compounds was 60:40 H2O:EtOH and 1:1 Acetone:EtOH for AN2718. (n=5-15 animals per treatment group).
Compound C was further analyzed at various dosages against 0.4 mg/ear of […] by the above protocol, data representing the average±S.E. of cumulative data from three independent experiments (n=12-15 mice per group) is shown below: […]

IL-5 = assay: T-cell receptor (anti-CD3/CD28)-induced IL-5 on PBMCs; type: cell-based; details: Homo sapiens, PBMC, anti-CD3/CD28 beads, 24 hours, ELISA, read-out: TCR-PBMCs IL-5 Protein IC50
Experimental: as §3

IL-10 = assay: T-cell receptor (anti-CD3/CD28)-induced IL-10 on PBMCs; type: cell-based; details: Homo sapiens, PBMC, anti-CD3/CD28 beads, 24 hours, ELISA, read-out: TCR-PBMCs IL-10 Protein IC50
Experimental: as §3

IL17A (IL-17A) = assay: P. acnes-induced IL-17 gene on human PBMCs (qPCR); type: cell-based; details: PBMC, PBMCs + live P. acnes 1:1, test material 30 PM, 24 hours
Experimental: as §1

IL1B (IL-1b) = assay: P. acnes-induced IL-1b gene on human PBMCs (qPCR); type: cell-based; details: PBMC, PBMCs + live P. acnes 1:1, test material 30 PM, 24 hours
Experimental: as §1

CXCL8 (IL-8) = assay: P. acnes-induced IL-8 gene on human PBMCs (qPCR); type: cell-based; details: PBMC, PBMCs + live P. acnes 1:1, test material 30 PM, 24 hours
Experimental: as §1

TNF (TNF-α) = assay: P. acnes-induced TNF-α gene on human PBMCs (qPCR); type: cell-based; details: PBMC, PBMCs + live P. acnes 1:1, test material 30 PM, 24 hours, read-out: TNFa-Gene % inhibition
Experimental: as §1

IL-8 [5] = assay: P. acnes-induced IL-8 on human NHEKs; type: cell-based; details: Homo sapiens; NHEK, live P. acnes 10^7 CFU, 24 hours, ELISA; read-out: P. acnes-NHEK IL-8 Protein IC50
Experimental: Normal human epidermal keratinocytes (NHEKs) from neonatal donors were obtained from Thermo-Fisher (Cat No. C-001-5C). Cells were cultured in 96-well plates for 24 hours with EpiLife media (Cat No. MEPI500CA) supplemented with keratinocytes growth supplement (Cat No. S0015). On Day 2, media was removed and replaced with supplement-depleted medium for 24 hours. On Day 3, media was removed and cells were pre-treated with test materials ([…]) for 2 hours and later co-treated with test materials and live P. acnes (ATCC® 6919TM) at 10^7 CFU for 24 hours at 37° C. and 5% CO2. After incubation, cell media supernatants were harvested and used to measure pro-inflammatory cytokine levels (IL-8) using ELISA kits (BD Biosciences® #555244). Results were represented as percent of inhibition relative to untreated and P. acnes-only treated cells. IC50 values were determined by non-linear regression analysis using the four-parameter logistic equation.

Row | Compound | MBC (P. acnes (ATCC 6919) [2]) [µg/mL] | MIC (P. acnes (ATCC 6919) [4]) [µg/mL] | pIC50 (IL-4) | inhibition in vivo at 3 % strength (Balb/C mice) [%] | pIC50 (IL-5) | pIC50 (IL-10) | inhibition at 30 pM (IL17A (IL-17A)) [%] | inhibition at 30 pM (IL1B (IL-1b)) [%] | inhibition at 30 pM (CXCL8 (IL-8)) [%] | inhibition at 30 pM (TNF (TNF-α)) [%] | other results
1 | O=C(O)CCCCCCCC(=O)O [Azelaic Acid, reference compound] | > 2000 | 1000 (≈ 5310 µM) | – | – | – | – | – | – | – | – | IL-8 Protein % inhibition (IL-8 [1]): 43%; inhibition at 30 pM (IL-17): 0%; inhibition at 30 pM (IL-1b): 66%; hBD2 gene expression (DEFB4B (hBD2)): 1.8 Fold-expression/untreated cells; TNFa-Protein % inhibition (TNF-α): 0%; hBD3 gene expression (DEFB103 (hBD3)): 0.9 Fold-expression/untreated cells; hCAP18 gene expression (HCAP18): 1.1 Fold-expression/untreated cells; MBEC [3]: 8000 μg/mL and (42503) μM
2 | CSCCC(NC(C)=O)C(=O)NC(CSC/C=C(\C)CCCC(C)CCCC(C)CCCC(C)C)C(=O)O (stereo not drawn) [Compound B] | – | 24 (≈ 41.9 µM) | 4.28 | 48 | 4.30 | 4.34 | – | – | – | – | –
3 | C/C(=C\CSCC(NC(=O)CCCCCCCCC(=O)O)C(=O)O)CCCC(C)CCCC(C)CCCC(C)C (stereo not drawn) [D] | – | > 250 | < 4.00 | 53 | < 4.00 | 4.00 | – | – | – | – | –
4 | CCN(CC(=O)O)C(=O)NC(CSC/C=C(\C)CCCC(C)CCCC(C)CCCC(C)C)C(=O)O (stereo not drawn) [I] | – | > 16 | – | 36 | – | – | 7 | 86 | 52 | 0 | –
5 | CC(=O)NC(CC(=O)NC(CSC/C=C(\C)CCCC(C)CCCC(C)CCCC(C)C)C(=O)O)C(=O)O (stereo not drawn) [Q] | – | 125 (≈ 224 µM) | – | – | – | – | 72 | 59 | 14 | 0 | –
6 | C/C(=C\CSCC(NC(=O)c1cc(O)c(O)c(O)c1)C(=O)O)CCCC(C)CCCC(C)CCCC(C)C (stereo not drawn) [V] | > 25 | > 4 | – | 5 | – | – | 0 | 83 | 46 | 0 | pIC50 (IL-8 [5]): 8.52
